Assay results taken from ChEMBL document CHEMBL1135870, “4-Aminoquinolines as a novel class of NR1/2B subtype selective NMDA receptor antagonists” (Bioorg Med Chem Lett, 2002).

Tests used:
Glutamate NMDA receptor = assay: Binding affinity against N-methyl-D-aspartate glutamate receptor using [3H]25-6981 as radioligand.; type: protein-complex assay
[1] = The ionization constant for the compound was tested using a potentiometric method.; type: physicochemical
Mus musculus = assay: In vivo effective dose required for 50% inhibition of sound induced seizures upon intraperitoneal dose, 30 min before testing in DBA/2 mice.; type: functional; conditions: ip

Row | Compound | Ki (Glutamate NMDA receptor) [nM] | pKa [1] | ED50 (Mus musculus) [mg/kg]
1 | CCCCc1cc(NCC(O)CO)c2ccccc2n1 (stereo not given) | 33000 |  | 
2 | Cc1ccc(-c2cc(NCC(O)CO)c3ccccc3n2)cc1Cl (stereo not given) | 17 |  | 
3 | OCC(O)CNc1cc(-c2ccc3c(c2)CCCC3)nc2ccccc12 (stereo not given) | 22 |  | 
4 | OCC(O)CNc1ccnc2ccccc12 (stereo not given) | > 35000 |  | 
5 | CC(C)Oc1ccc(-c2cc(NCC(O)CO)c3ccccc3n2)cc1 (stereo not given) | 500 |  | 
6 | CCCNc1cc(-c2ccccc2)nc2ccccc12 | 4900 |  | 
7 | OCC(O)CNc1cc(-c2ccccc2)nc2ccccc12 (stereo not given) | 260 | 8.4 | 
8 | Cc1ccc(-c2cc(NC[C@H](C)O)c3ccccc3n2)cc1Cl | 10 |  | 12
9 | Cc1ccccc1-c1cc(NCC(O)CO)c2ccccc2n1 (stereo not given) | 3700 |  | 
10 | Nc1cc(-c2ccccc2)nc2ccccc12 | 413 | 8.5 | 
11 | OCCNc1cc(N2CCc3ccccc3C2)nc2ccccc12 | 3.5 |  | < 12
12 | C[C@H](O)CNc1cc(-c2ccccc2)nc2ccccc12 | 75 |  | 
13 | COCCNc1cc(-c2ccccc2)nc2ccccc12 | 7500 |  | 
14 | Cc1cc(NCC(O)CO)c2ccccc2n1 (stereo not given) | > 40000 |  | 
15 | COc1ccc(-c2cc(NCCO)c3ccccc3n2)cc1 | 15 |  | 25
16 | CC(O)CNc1cc(-c2ccccc2)nc2ccccc12 (stereo not given) | 260 |  | 
17 | C[C@@H](O)CNc1cc(-c2ccccc2)nc2ccccc12 | 450 |  | 
18 | OCC(O)CNc1cc(-c2ccc(Cl)cc2)nc2ccccc12 (stereo not given) | 100 |  | 
19 | COc1ccc(-c2cc(NCC(O)CO)c3ccccc3n2)cc1 (stereo not given) | 19 |  | 
20 | OCC(O)CNc1cc(-c2ccc(O)cc2)nc2ccccc12 (stereo not given) | > 4000 |  | 
21 | CC(=O)CNc1cc(-c2ccccc2)nc2ccccc12 | 7900 |  | 
22 | COc1ccc(-c2cc(NC[C@H](C)O)c3ccccc3n2)cc1C | 10 |  | 17
23 | OCCNc1cc(-c2ccccc2)nc2ccccc12 | 110 |  | 
24 | COc1ccc(-c2cc(NCC(O)CO)c3ccccc3n2)cc1C (stereo not given) | 26 |  | 
25 | Cc1ccc(-c2cc(NCC(O)CO)c3ccccc3n2)cc1 (stereo not given) | 23 |  | 
26 | OCC(O)CNc1cc(C2CCc3ccccc3C2)nc2ccccc12 (stereo in doubt; 19) | 100 |  | 
27 | OCC(O)CNc1cc(C2CCc3ccccc3C2)nc2ccccc12 (stereo in doubt; 20) | 11 |  | 
28 | c1ccc(-c2ccc3ccccc3n2)cc1 [2-PHENYLQUINOLINE] | > 35000 | 5.2 | 
